Assay results published in patent US5488051A, “Substituted 5,6-dihydro-5-oxo-1,4-dithiino-(2,3-d)-pyridazine-2,3-dicarbonitriles, compositions containing them and their use as antimicrobials” (The Dow Chemical Company, priority 1994, dated 1996).
≈ marks a conversion by molar mass, not a printed value. Like-named read-outs stand apart in the source and are kept apart here.

Key:
[1] = tested on: Pseudomonas aeruginosa (Pa); experiment: MIC for Pseudomonas aeruginosa, nutrient agar; type: cell-based, Pseudomonas aeruginosa ATCC 10145; settings: pH 8.2, 30° C., 48 hours, read-out: Minimum Inhibitory Concentration (MIC), Pa
Method: (§1) The minimum inhibitory concentration (MIC) for the compounds listed in Table I is determined for 9 bacteria, using nutrient agar; and 7 yeast and fungi, using malt yeast agar. A one percent solution of the test compound is prepared in a mixture of acetone and water.
(§2) Nutrient agar is prepared at pH 6.8, representing a neutral medium, and at pH 8.2, representing an alkaline medium. The nutrient agars are prepared by adding 23 g of nutrient agar to one-liter of deionized water. In addition, the alkaline medium is prepared by adjusting a 0.04M solution of N-[tris-(hydroxymethyl)methyl]-glycine buffered deionized water with concentrated sodium hydroxide to a pH of 8.5.
(§3) The test tubes containing the malt yeast agar and the nutrient agar are cooled in a water bath until the temperature of the agar is 48° C. Then, an appropriate amount of the one percent solution of the test compound is added (except in the controls where no compound is added) to the respective test tubes so that the final concentrations are zero (0), 1.0, 2.5, 5, 10, 25, 50, 100, 250 and 500 parts per million of the test compound in each of the respective type of agar. The contents of each of the test tubes are then transferred to separate petri plates. After drying for 24 hours, the petri plates containing nutrient agar are inoculated with bacteria and those containing malt yeast agar are inoculated with yeast and fungi.
(§4) The inoculation with bacteria is accomplished by using the following procedure. Twenty-four hour-cultures of each of the bacteria are prepared by incubating the respective bacteria in tubes containing nutrient broth for 24 hours at 30° C. in a shaker. Dilutions of each of the 24 hour-cultures are made so that nine separate suspensions (one for each of the nine test bacteria) are made, each containing 10^8 colony forming units (CFU) per mL of suspension of a particular bacteria. Aliquots of 0.3 mL of each of the bacterial suspensions are used to fill the individual wells of Steer's Replicator. For each microbial suspension, 0.3 mL was used to fill three wells (i.e., three wells of 0.3 mL each) so that for the nine different bacteria, 27 wells are filled. The Steer's Replicator is then used to inoculate both the neutral and alkaline pH nutrient agar petri plates.
(§5) The inoculated petri plates are incubated at 30° C. for 48 hours and then read to determine if the test compound which is incorporated into the agar prevented growth of the respective bacteria.
(§6) Table II list the bacteria, yeast and fungi used in the MIC test described above along with their respective American Type Culture Collection (ATCC) identification numbers.

Trichoderma viride (Tv) = experiment: MIC for Trichoderma viride, malt yeast agar; type: cell-based, Trichoderma viride ATCC 8678; settings: malt yeast agar; 30° C., 72 hours for fungi; read-out: Minimum Inhibitory Concentration (MIC), Tv
Method: as §1
(§7) Malt yeast agar is prepared by adding 3 g yeast extract and 45 g malt agar per liter of deionized water. The specific agar is dispensed in 30 mL aliquots into 25×200 mm test tubes, capped and autoclaved for 15 minutes at 115° C.
as §3
(§8) The inoculation with the yeast and fungi is accomplished as follows. Cultures of yeast and fungi are incubated for seven days on malt yeast agar at 30° C. These cultures are used to prepare suspensions by the following procedure. A suspension of each organism is prepared by adding 10 mL of sterile saline and 10 microliters of octylphenoxy polyethoxy ethanol to the agar slant of yeast or fungi. The sterile saline/octylphenoxy polyethoxy ethanol solution is then agitated with a sterile swab to suspend the microorganism grown on the slant. Each resulting suspension is diluted into sterile saline (1 part suspension: 9 parts sterile saline). Aliquots of these dilutions are placed in individual wells of Steer's Replicator and petri plates inoculated as previously described. The petri plates are incubated at 30° C. and read after 48 hours for yeast and 72 hours for fungi.
as §6

Candida albicans (Ca) = experiment: MIC for Candida albicans, malt yeast agar; type: cell-based, Candida albicans ATCC 10231; settings: malt yeast agar; 30° C., 48 hours for yeast; read-out: Minimum Inhibitory Concentration (MIC), Ca
Method: as §1, §7, §3, §8, §6

[2] = tested on: Penicillium chrysogenum (Pc); experiment: MIC for Penicillium chrysogenum, malt yeast agar; type: cell-based, Penicillium chrysogenum ATCC 9480; settings: malt yeast agar; 30° C., 72 hours for fungi; read-out: Minimum Inhibitory Concentration (MIC), PC
Method: as §1, §7, §3, §8, §6

Bacillus subtilis (Bs) = experiment: MIC for Bacillus subtilis, nutrient agar; type: cell-based, Bacillus subtilis ATCC 8473; settings: 30° C., 48 hours, read-out: Minimum Inhibitory Concentration (MIC), Bs
Method: as §1, §2, §3, §4, §5, §6

[3] = tested on: Klebsiella pneumonias (Kp); experiment: MIC for Klebsiella pneumonias, nutrient agar; type: cell-based, Klebsiella pneumonias ATCC 8308; settings: 30° C., 48 hours, read-out: Minimum Inhibitory Concentration (MIC), Kp
Method: as §1, §2, §3, §4, §5, §6

Fusarium oxysporum (Fo) = experiment: MIC for Fusarium oxysporum, malt yeast agar; type: cell-based, Fusarium oxysporum ATCC 48112; settings: malt yeast agar; 30° C., 72 hours for fungi; read-out: Minimum Inhibitory Concentration (MIC), Fo
Method: as §1, §7, §3, §8, §6

[4] = tested on: Enterobacter aerogenes (Ea); experiment: MIC for Enterobacter aerogenes, nutrient agar; type: cell-based, Enterobacter aerogenes ATCC 13048; settings: Klebsiella aerogenes, nutrient agar, 30° C., 48 hours, read-out: Minimum Inhibitory Concentration (MIC), Ea
Method: as §1, §2, §3, §4, §5, §6

Saccharomyces cerevisiae = experiment: MIC for Saccharomyces cerevisiae, malt yeast agar; type: cell-based, Saccharomyces cerevisiae ATCC 4105; settings: malt yeast agar, 30° C., 48 hours for yeast, read-out: Minimum Inhibitory Concentration (MIC), Sc
Method: as §1, §7, §3, §8, §6

[5] = tested on: Aureobasidium pullulan (Ap); experiment: MIC for Aureobasidium pullulan, malt yeast agar; type: cell-based, Aureobasidium pullulan ATCC 16622; settings: malt yeast agar; 30° C.; 48 hours for yeast and 72 hours for fungi; read-out: Minimum Inhibitory Concentration (MIC), Ap
Method: as §1, §7, §3, §8, §6

Aspergillus niger (An) = experiment: MIC for Aspergillus niger, malt yeast agar; type: cell-based, Aspergillus niger ATCC 16404; settings: malt yeast agar; 30° C., 72 hours for fungi; read-out: Minimum Inhibitory Concentration (MIC), An
Method: as §1, §7, §3, §8, §6

[6] = tested on: Pseudomonas aeruginosa (PRD-10); experiment: MIC for Pseudomonas aeruginosa PRD-10, nutrient agar; type: cell-based, Pseudomonas aeruginosa ATCC 15442; settings: 30° C., 48 hours, read-out: Minimum Inhibitory Concentration (MIC), PRD
Method: as §1, §2, §3, §4, §5, §6

Escherichia coli (Ec) = experiment: MIC for Escherichia coli, nutrient agar; type: cell-based, Escherichia coli ATCC 11229; settings: 30° C., 48 hours, read-out: Minimum Inhibitory Concentration (MIC), Ec
Method: as §1, §2, §3, §4, §5, §6

Proteus vulgaris (Pv) = experiment: MIC for Proteus vulgaris, nutrient agar; type: cell-based, Proteus vulgaris ATCC 881; settings: 30° C., 48 hours, read-out: Minimum Inhibitory Concentration (MIC), Pv
Method: as §1, §2, §3, §4, §5, §6

Salmonella choleraesuis = experiment: MIC for Salmonella choleraesuis, nutrient agar; type: cell-based, Salmonella choleraesuis ATCC 10708; settings: Salmonella enterica, 30° C., 48 hours, read-out: Minimum Inhibitory Concentration (MIC), SC
Method: as §1, §2, §3, §4, §5, §6

[7] = tested on: Staphylococcus aureus (Sa); experiment: MIC for Staphylococcus aureus, nutrient agar; type: cell-based, Staphylococcus aureus ATCC 6538; settings: 30° C., 48 hours, read-out: Minimum Inhibitory Concentration (MIC), Sa
Method: as §1, §2, §3, §4, §5, §6

Molecule N#CC1=C(C#N)Sc2c(cnn(-c3ccc(Cl)cc3Cl)c2=O)S1 [G, 5,6-dihydro-6-(2,4-dichlorophenyl)-5-oxo-1,4-dithiino-(2,3-d)-pyridazine-2,3-dicarbonitrile] has an MIC [1] of over 500 µg/mL, an MIC (Trichoderma viride (Tv)) of 250 µg/mL (≈ 659 µM) and an MIC (Candida albicans (Ca)) of 50 µg/mL (≈ 132 µM). It also gave an MIC [2] of 100 µg/mL (≈ 264 µM), an MIC (Bacillus subtilis (Bs); pH 6.8, nutrient agar) of 25 µg/mL (≈ 65.9 µM) and an MIC (Bacillus subtilis (Bs); pH 8.2, nutrient agar) of 250 µg/mL (≈ 659 µM). The MIC ([3]; pH 6.8, nutrient agar) was 250 µg/mL (≈ 659 µM), the MIC ([3]; pH 8.2, nutrient agar) was 500 µg/mL (≈ 1320 µM) and the MIC (Fusarium oxysporum (Fo)) was 100 µg/mL (≈ 264 µM). The MIC ([4]; pH 6.8) was over 500 µg/mL, the MIC ([4]; pH 8.2) was over 500 µg/mL and the MIC (Saccharomyces cerevisiae) was 50 µg/mL (≈ 132 µM). The MIC [5] was 50 µg/mL (≈ 132 µM), the MIC (Aspergillus niger (An)) was 100 µg/mL (≈ 264 µM) and the MIC ([6]; pH 6.8, nutrient agar) was 500 µg/mL (≈ 1320 µM). It also gave an MIC ([6]; pH 8.2, nutrient agar) of over 500 µg/mL, an MIC (Escherichia coli (Ec); pH 6.8, nutrient agar) of 250 µg/mL (≈ 659 µM) and an MIC (Escherichia coli (Ec); pH 8.2, nutrient agar) of over 500 µg/mL. For the same molecule, the MIC (Proteus vulgaris (Pv); pH 6.8, nutrient agar) was 500 µg/mL (≈ 1320 µM), the MIC (Proteus vulgaris (Pv); pH 8.2, nutrient agar) was over 500 µg/mL and the MIC (Salmonella choleraesuis; pH 6.8, nutrient agar) was 500 µg/mL (≈ 1320 µM). For the same molecule, the MIC (Salmonella choleraesuis; pH 8.2, nutrient agar) was over 500 µg/mL, the MIC ([7]; pH 6.8, nutrient agar) was 100 µg/mL (≈ 264 µM) and the MIC ([7]; pH 8.2, nutrient agar) was 250 µg/mL (≈ 659 µM).
